From patent US9278903B2, “Crystal form of prostaglandin analogue, and preparation method and use thereof” (Shanghai Techwell Biopharmaceutical Co., Ltd., priority 2012, dated 2016)
Each block holds one compound with its values, some of them ahead of it.

Experiments:
[1] = cited from earlier work
[2] = Stability comparison at 40° C. (HPLC purity); type: physicochemical
Protocol: (§1) Column: 4.6×250 mm 5 μm C18 column; flow rate: 2 ml/min; injection volume: 10 μl; column temperature: 35° C.; detection wavelength: 217 nm; mobile phase: acetonitrile/water/trifluoroacetic acid; Elution condition: water (60%): acetonitrile (40%): trifluoroacetic acid (0.1%); detection limit: 10 ng.
The purity mentioned in the following Examples is HPLC purity.
Compound I from example 2, example 3 and example 4 were obtained, and subjected to stability test at 40° C., respectively. […] Therefore, crystalline form A of compound I prepared by the method of the present invention has unique stability.

[3] = Storage stability of crystalline form A (HPLC); type: physicochemical
Protocol: as §1
[…] […] Therefore, crystalline form A of compound I prepared by the method of the present invention has unique stability.

[4] = cited from earlier work; remark: listed apart in the source

SMILES: CCCCC[C@H](O)/C=C/[C@@H]1[C@H]2C/C(=C/CCCC(=O)O)O[C@H]2C[C@H]1O [Epoprostenol]
- Half-life in circulation [1]: 3 to 5 min

- Purity at 0 day (40° C.) ([2]; 0 day): 99.90%
- Purity at 10 day (40° C.) ([2]; 10 day): 99.91%
- Purity at 30 day (40° C.) ([2]; 30 day): 99.89%
- Purity at 90 day (40° C.) ([2]; 90 day): 99.88%
- Degradation on storage (HPLC) ([3]; stored at 0° C. for 12 months): did not degrade at all
- Degradation on storage (HPLC) ([3]; stored at 20° C. for 6 months): did not degrade at all
- Degradation on storage (HPLC) ([3]; stored at 40° C. for 2 months): did not degrade at all
SMILES: CCCCC[C@H](O)CC[C@@H]1[C@H]2Cc3cccc(OCC(=O)O)c3C[C@H]2C[C@H]1O [Example 4]

SMILES: CCCCC[C@H](O)CC[C@@H]1[C@H]2Cc3cccc(OCC(=O)O)c3C[C@H]2C[C@H]1O [Treprostinil]
- Stability under physiological conditions [4]: stable under physiological conditions
